Test results: publication PMC3572265 (Pediatric diabetes, 2012)

Legend:
[1] = test system: adolescents with type 1 diabetes; assay: euglycemic clamp, pharmacodynamics; type: in vivo, human; conditions: difference with vs without InsuPatch activation; 0.2 u/kg bolus
[2] = plasma insulin pharmacokinetics during euglycemic clamp; type: in vivo, human; conditions: Without InsuPatch activation, 0.2 unit/kg s.c. bolus, mean±SEM

For aspart insulin, the “TGIRmax earlier with IP activation than without” value [1] was 35 min and the “time to reach maximum increments in plasma insulin” value [2] was 67 ± 10 min.
